Key:
[1] = biological target: T1, FLAG-tagged Vanin-1 (AA 22-493, T26I) (Homo sapiens, UniProt O95497, T26I); assay: Vanin-1 enzymatic assay; format: biochemical; details: 0.1 nM Vanin-1, 3 μM D-pantethine, pantothenic acid formation by RapidFire MS; geometric mean if multiple measurements; read-out: VNN-1 IC50
T1 construct: FLAG-tagged Vanin-1 (AA 22-493, T26I, produced internally); FLAG; made in house
T1 sequence (O95497 22-493 T26I): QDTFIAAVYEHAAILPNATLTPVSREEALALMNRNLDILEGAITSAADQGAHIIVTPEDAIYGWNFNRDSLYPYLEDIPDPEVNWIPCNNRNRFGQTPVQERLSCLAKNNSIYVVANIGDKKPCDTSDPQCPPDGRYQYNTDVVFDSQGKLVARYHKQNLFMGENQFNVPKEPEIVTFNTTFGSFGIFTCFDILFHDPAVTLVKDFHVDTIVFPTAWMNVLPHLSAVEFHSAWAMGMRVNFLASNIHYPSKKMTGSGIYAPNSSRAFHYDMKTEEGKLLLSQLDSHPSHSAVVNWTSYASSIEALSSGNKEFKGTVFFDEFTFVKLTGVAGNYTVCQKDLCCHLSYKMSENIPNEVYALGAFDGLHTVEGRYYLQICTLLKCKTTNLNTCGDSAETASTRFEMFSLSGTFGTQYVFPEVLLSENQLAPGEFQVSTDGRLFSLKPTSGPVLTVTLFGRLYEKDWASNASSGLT
Description: The test compounds are dissolved in 100% DMSO at a concentration of 10 mM and in a first step diluted in DMSO to a concentration of 5 mM, followed by serial dilution steps in 100% DMSO. Dilution factor and number of dilution steps may vary according to needs. Typically 8 different concentrations by 1:5 dilutions are prepared, a further intermediate dilutions of the substances is carried out with assay buffer resulting in 1% final DMSO concentration in the assay.
0.1 nM of FLAG-tagged Vanin-1 (AA 22-493, T26I, produced internally) and test compounds are incubated at room temperature for 20 minutes in assay buffer (1 mM DTT, 0.0025% Brij-35, 50 mM HEPES, pH7.5). D-Pantethine (Sigma, Cat #P2125-5G) in assay buffer is added (final concentration 3 μM) and incubated for additional 30 minutes at room temperature. Total assay volume typically is 40 μl but might be adjusted according to needs. Reaction is stopped by adding equal volume of stop solution as the reaction mixture to reach 100 nM HD-pantothenic acid (as an internal standard) and 1% TFA. Assay plates are centrifuged for 2 minutes and the formation of pantothenic acid is detected by RapidFire Mass Spectrometry (mobile phase A: 0.1% formic acid and 0.01% trifluoroacetic acid in water; mobile phase B: 47.5% acetonitrile, 47.5% methanol, 0.1% formic acid and 0.01% trifluoroacetic acid in water) using a C18, 12 μL cartridge (Agilent Cat #G9205A).
The values given in Table I result from measurements of one or more samples. In case of multiple measurements the geometric mean values are given.

Pantetheinase (vanin) = assay: Human Whole Blood assay; format: cell-based; details: pantethine substrate, pantothenic acid formation by RapidFire MS, read-out: HWB IC50
Description: Human Whole Blood assay: Pantetheinase (vanin) converts panteheine into pantothenic acid and cysteamine. Accordingly, in the described protocol vanin activity is quantified by formation of pantothenic acid after pantetheine supplementation via pantethine. The assay is applicable to identify vanin inhibitors. Compound stocks are dissolved in DMSO at 10 mM. Further dilutions are performed in RPMI 1640 medium (Gibco, #A-10491-01) and final concentrations in the assay are 0.032 nM-500 nM.
Human blood is drawn into a blood bag (1% heparin, 50 I.E./mL). Blood is aliquoted into cavities of 96-deep-well plates at 290 μL and mixed with 10 μL compound solution or vehicle (30 sec at 1400 rpm on a shaker). Equilibration follows at room temperature, 250 rpm and for 30 min. The assay is starts by adding 10 μL of substrate solution (20 μM pantethine in 1 mM DTT, 0.0025% Brij-35, 50 mM HEPES, pH7.5) to each well, except for some blank wells which receive […] substrate buffer (1 mM DTT, 0.0025% Brij-35, 50 mM HEPES, pH7.5) only. Samples are thoroughly shaken (30 sec, 1400 rpm) and reaction is allowed to take place at room temperature, 250 rpm and for 5 min. The reaction is stopped by addition of a vanin tool inhibitor in excess (BI-1 total conc. 10 μM). Centrifugation of the plate follows at 4° C., 665 G for 10 min. Then the blood plasma samples (100 μL) are transferred into another 96-deep-well plate and proteins are precipitated (5 min on ice) by adding 100 μL of ice cold precipitation solution (1 μM labelled pantothenic acid (di-β-alanine-13C6,15N2 calcium salt, Sigma, #705837) in acetonitrile). Afterwards the plate is centrifuged (4° C., 3220 G, 10 min) and supernatants (50 μL) are collected into another 96-deep-well plate and mixed (10 sec, 1400 rpm) with 150 μL ice cold formic acid (0.1%, Carl Roth GmbH+Co.KG, #CP03.1). The formation of pantothenic acid is detected by RapidFire Mass Spectrometry. A TripleQuad 6500+ (ABSciex, Germany) is equipped with an LC-1290 system, a RapidFire autosampler (Agilent, Germany) and a C18 cartridge Type C 12 μL (Agilent Cat #G9526-80000). Mobile phase A is consisting of 0.09% formic acid and 0.01% trifluoroacetic acid in water and mobile phase B of 0.09% formic acid and 0.01% trifluoroacetic acid in acetonitrile/methanol/water=47.5/47.5/5.

| Structure (SMILES) | IC50 [1] [nM] | IC50 (Pantetheinase (vanin)) [nM] |
| --- | --- | --- |
| Cc1ncccc1CNc1ccc(C(=O)N2CC[C@H](N(C)C(=O)C3(C)CCC3)C2)cn1 [Example 1.18] | 0.22 | 1.77 |
| CC(=O)N(C)[C@H]1CCN(C(=O)c2ccc(NC(C)c3cccc(S(N)(=O)=O)c3)nc2)C1 (stereo partly drawn) [Example 1.27] | 0.3 | 4.39 |
| CC(=O)N(C)[C@H]1CCN(C(=O)c2ccc(NC3(c4ccc(C(F)(F)F)nc4)CC3)nc2)C1 [Example 1.20] | 0.23 | 4.74 |
| CN(C(=O)C1CC1)[C@H]1CCN(C(=O)c2ccc(NCc3cncc(F)c3)nc2)C1 [Example 1.38] | 0.65 | 5.19 |
| CN(C(=O)C1(C)CCC1)[C@H]1CCN(C(=O)c2ccc(NC3CCc4[nH]ncc43)nc2)C1 (stereo partly drawn) [Example 1.26] | 0.29 | 1.98 |
| CC(=O)N(C)[C@H]1CCN(C(=O)c2ccc(N[C@@H](C)c3cccc(C#N)c3)nc2)C1 [Example 1.12] | 0.16 | 6.13 |
| CC(=O)N(C)[C@H]1CCN(C(=O)c2ccc(NC(C)c3cccc(C#N)c3)nc2)C1 (stereo partly drawn) [Example 1.40] | 0.67 | 2.1 |
| CN(C(=O)C1(C)CCC1)[C@H]1CCN(C(=O)c2ccc(NCc3cccnc3)nc2)C1 [Example 1.14] | 0.18 | 8.7 |
| CC(=O)N(C)[C@H]1CCN(C(=O)c2ccc(N[C@@H](C)c3ccc(Cl)nc3)nc2)C1 [Example 1.11, N-[(3S)-1-(6-{[(1S)-1-(6-chloropyridin-3-yl)ethyl]-amino}pyridine-3-carbonyl)pyrrolidin-3-yl]-N-methylacetamide] | 0.15 | 1.9 |
| C[C@@H](Nc1ccc(C(=O)N2CC[C@H](N(C)C(=O)C3(C)CCC3)C2)cn1)c1cnccn1 [Example 1.30] | 0.4 | 3.28 |

Next, values leading:

| IC50 [1] [nM] | IC50 (Pantetheinase (vanin)) [nM] | Structure (SMILES) |
| --- | --- | --- |
| 0.19 | 1.95 | CC(=O)N(C)[C@H]1CCN(C(=O)c2ccc(NC3CCc4ncccc43)nc2)C1 (single isomer, unassigned) [Example 8.8] |
| 0.15 | 1.84 | CN(C(=O)C1CC1)[C@H]1CCN(C(=O)c2ccc(NC3(c4cncnc4)CC3)nc2)C1 [Example 8.6] |
| 0.24 | 1.6 | CC1(C#N)CCN(C(=O)c2ccc(NCc3cccnc3)nc2)C1 (stereo not drawn) [Example 3.3] |
| 0.17 | 4.28 | CC(=O)N(C)[C@H]1CCN(C(=O)c2ccc(N[C@@H](C)c3cccc(C(F)(F)F)c3)nc2)C1 [Example 9.3] |
| 0.32 | 4.89 | O=C(c1ccc(NCc2ccc(Cl)cc2)nc1)N1CC[C@H](N2CCCC2=O)C1 [Example 8.9] |
| 0.41 | 10.4 | O=C(c1ccc(NCc2ccc(Cl)cc2)nc1)N1CC[C@H](N2CCOC2=O)C1 [Example 8.12] |
| 0.13 | 1.78 | CC(=O)N(C)[C@H]1CCN(C(=O)c2ccc(NCc3cccnc3)nc2)C1 [Example 7.1, N-Methyl-N-[(3S)-1-(6-{[(pyridin-3-yl)methyl]amino}pyridine-3-carbonyl)pyrrolidin-3-yl]acetamide] |
| 0.1 | 2.43 | CC(C)(Nc1ccc(C(=O)N2CC[C@H](N3CCCC3=O)C2)cn1)c1ccccc1 [Example 4.2] |

From patent US12240828B2, “Heteroaromatic compounds as vanin inhibitors” (Boehringer Ingelheim International GmbH, priority 2018, dated 2025)
